Assay results reported in US9624233B2, “Compounds for treating pruritic conditions” (priority 2015, dated 2017).
“And” between values parts separate entries of the source, which are not always exact repeats. Equal entries are not always repeated.

Key:
[1] = target: T1, OX2 (h) (Homo sapiens, UniProt O43614); assay: Abuse liability binding screen, OX2 (h) (agonist radioligand)
T1 sequence (O43614 1-444): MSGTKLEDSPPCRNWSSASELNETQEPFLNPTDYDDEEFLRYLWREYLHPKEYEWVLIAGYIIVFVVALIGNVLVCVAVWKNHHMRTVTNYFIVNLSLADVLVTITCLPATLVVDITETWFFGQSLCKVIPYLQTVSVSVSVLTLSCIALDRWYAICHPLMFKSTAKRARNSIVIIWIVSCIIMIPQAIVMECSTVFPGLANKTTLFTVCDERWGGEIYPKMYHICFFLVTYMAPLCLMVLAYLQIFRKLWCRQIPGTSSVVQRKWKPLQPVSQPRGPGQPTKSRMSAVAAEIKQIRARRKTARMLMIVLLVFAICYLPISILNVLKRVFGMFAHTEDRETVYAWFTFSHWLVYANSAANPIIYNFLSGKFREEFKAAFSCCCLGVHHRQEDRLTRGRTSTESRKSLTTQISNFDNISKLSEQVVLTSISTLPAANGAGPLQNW
Protocol: […]. The abuse liability screen included 44 targets (receptors, transporters, on gated-channel systems) related to the dopamine, norepinephrine, serotonin, gamma-aminobutyric acid (GABA), acetylcholine, N-methyl-D-aspartate (NMDA) cannabinoid and opioid neurotransmitter systems as recommended in FDA Draft guidance on Assessment of Abuse Potential of Drugs, January 2010.
(§1) Compound binding was calculated as a % inhibition of the binding of a radioactively labeled ligand specific for each target.
Results showing an inhibition or stimulation higher than 50% are considered to represent significant effects of the test compounds.

[2] = target: μ (MOP) (h) (Homo sapiens, UniProt P35372); assay: biochemical; format: binding
μ (MOP) (h), sequence (P35372 whole entry): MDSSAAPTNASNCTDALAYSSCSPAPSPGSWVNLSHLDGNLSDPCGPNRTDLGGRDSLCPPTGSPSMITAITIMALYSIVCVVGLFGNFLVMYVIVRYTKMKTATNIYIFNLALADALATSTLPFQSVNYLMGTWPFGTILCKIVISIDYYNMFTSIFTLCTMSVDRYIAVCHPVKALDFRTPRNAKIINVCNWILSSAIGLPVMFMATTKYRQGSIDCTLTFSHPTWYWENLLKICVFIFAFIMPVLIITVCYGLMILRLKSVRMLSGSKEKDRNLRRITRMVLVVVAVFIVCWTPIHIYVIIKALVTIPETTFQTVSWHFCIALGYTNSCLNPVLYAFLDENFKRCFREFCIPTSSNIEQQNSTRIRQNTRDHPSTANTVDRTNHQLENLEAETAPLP
Protocol: as §1

[3] = target: T2, μ-opioid receptor expressed in HEK cells (Mus musculus, UniProt P42866); assay: Opioid cell functional assay, opioid-agonist assay, HEK-μ; format: cell-based
T2 construct: expressed in transfected cells; host or cells: HEK (human embryonic kidney) cells
T2 sequence (P42866 whole entry): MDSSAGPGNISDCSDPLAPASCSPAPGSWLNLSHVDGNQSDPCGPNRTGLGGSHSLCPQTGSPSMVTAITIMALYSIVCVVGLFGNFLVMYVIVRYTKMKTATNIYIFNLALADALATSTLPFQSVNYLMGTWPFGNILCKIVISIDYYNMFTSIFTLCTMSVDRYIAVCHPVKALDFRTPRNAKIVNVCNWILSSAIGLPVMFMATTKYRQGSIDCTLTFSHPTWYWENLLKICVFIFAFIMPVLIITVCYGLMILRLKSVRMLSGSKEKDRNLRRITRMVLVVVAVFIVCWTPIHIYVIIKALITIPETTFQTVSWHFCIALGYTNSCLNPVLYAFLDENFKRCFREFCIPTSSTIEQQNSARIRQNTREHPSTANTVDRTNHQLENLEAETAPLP

[4] = target: T2, μ-opioid receptor expressed in HEK cells; assay: Opioid receptor binding study, HEK-μ, [3H]DAMGO
[5] = target: T3, cloned human δ-opioid receptor expressed in CHO (Homo sapiens, UniProt P41143); assay: Opioid receptor binding study, CHO-δ, [3H]DPDPE; conditions: @ 25,000 nM, [3H]DADLE, read-out: % inhibition printed in the IC50 column
T3 construct: expressed in transfected cells; host or cells: CHO cells
T3 sequence (P41143 whole entry): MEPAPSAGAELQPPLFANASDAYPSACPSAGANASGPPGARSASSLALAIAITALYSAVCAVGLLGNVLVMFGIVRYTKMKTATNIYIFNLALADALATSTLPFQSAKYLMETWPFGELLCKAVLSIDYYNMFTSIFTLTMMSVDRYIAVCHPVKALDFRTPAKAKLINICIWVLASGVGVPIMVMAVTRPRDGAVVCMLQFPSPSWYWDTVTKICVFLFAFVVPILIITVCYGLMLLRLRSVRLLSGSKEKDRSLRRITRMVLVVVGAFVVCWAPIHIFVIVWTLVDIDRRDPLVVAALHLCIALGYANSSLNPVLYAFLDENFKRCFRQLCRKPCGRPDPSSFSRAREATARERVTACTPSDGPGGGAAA

[6] = tested on: kainate; assay: Abuse liability binding screen, kainate (agonist radioligand); conditions: 2.5E−05M
Protocol: as §1

[7] = tested on: Na^+ channel (site 2); assay: Abuse liability binding screen, Na+ channel (site 2) (antagonist radioligand); conditions: 2.5E−05M
Protocol: as §1

[8] = tested on: AMPA; assay: Abuse liability binding screen, AMPA (antagonist radioligand); conditions: 2.5E−05M
Protocol: as §1

[9] = target: T4, cloned human κ-opioid receptor expressed in CHO (Homo sapiens, UniProt P41145); assay: cell-based; parameters: Max Inh (%): dose or concentration left out as unconfirmed; conditions: opioid-antagonist assay
T4 sequence (P41145 whole entry): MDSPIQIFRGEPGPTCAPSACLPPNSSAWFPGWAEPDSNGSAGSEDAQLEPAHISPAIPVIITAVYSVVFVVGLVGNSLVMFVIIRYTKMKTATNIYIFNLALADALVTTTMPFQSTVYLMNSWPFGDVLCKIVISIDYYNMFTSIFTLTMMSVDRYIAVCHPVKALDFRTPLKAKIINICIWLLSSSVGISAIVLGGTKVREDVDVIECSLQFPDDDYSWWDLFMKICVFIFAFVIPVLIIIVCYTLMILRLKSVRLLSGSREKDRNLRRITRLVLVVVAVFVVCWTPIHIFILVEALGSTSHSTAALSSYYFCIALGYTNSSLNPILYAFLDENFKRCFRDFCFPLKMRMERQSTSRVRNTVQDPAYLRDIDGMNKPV

[10] = target: T4, cloned human κ-opioid receptor expressed in CHO; assay: biochemical; format: binding
[11] = tested on: PCP; assay: Abuse liability binding screen, PCP (antagonist radioligand); conditions: 2.5E−05M
Protocol: as §1

[12] = tested on: NMDA; assay: Abuse liability binding screen, NMDA (antagonist radioligand); conditions: 2.5E−05M
Protocol: as §1

[13] = target: T2, μ-opioid receptor expressed in HEK cells; assay: Opioid cell functional assay, opioid-antagonist assay, HEK-μ (CTOP); format: cell-based
[14] = tested on: glycine (strychnine−insensitive); format: binding; conditions: 2.5E−05M
Protocol: as §1

[15] = target: T3, cloned human δ-opioid receptor expressed in CHO; assay: Opioid cell functional assay, opioid-agonist assay, CHO-δ; format: cell-based; conditions: cell functional assays
[16] = tested on: GABA transporter; assay: Abuse liability binding screen, GABA transporter (antagonist radioligand); conditions: 2.5E−05M
Protocol: as §1

[17] = Plasma Cmax in HD patients; conditions: human
[18] = target: T4, cloned human κ-opioid receptor expressed in CHO; assay: cell-based; conditions: opioid-agonist assay
[19] = target: κ (KOP) (Rattus norvegicus, UniProt P34975); assay: Binding screen and IC50 determination, κ (KOP) (agonist radioligand)
κ (KOP), sequence (P34975 whole entry): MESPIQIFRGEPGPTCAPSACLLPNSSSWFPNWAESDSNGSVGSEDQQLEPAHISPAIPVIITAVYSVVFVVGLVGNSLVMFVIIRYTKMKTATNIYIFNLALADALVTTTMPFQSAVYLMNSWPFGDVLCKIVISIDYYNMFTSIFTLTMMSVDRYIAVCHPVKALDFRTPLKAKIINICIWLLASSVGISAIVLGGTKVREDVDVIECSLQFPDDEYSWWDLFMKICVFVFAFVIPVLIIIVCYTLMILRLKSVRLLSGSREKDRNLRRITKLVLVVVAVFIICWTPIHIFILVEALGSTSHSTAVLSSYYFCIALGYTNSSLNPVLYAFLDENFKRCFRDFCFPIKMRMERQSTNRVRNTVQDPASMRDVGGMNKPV
Protocol: as §1

[20] = tested on: BZD (central); assay: Abuse liability binding screen, BZD (central) (agonist radioligand); conditions: 2.5E−05M
Protocol: as §1

[21] = tested on: Cl^− channel (GABA-gated); assay: Abuse liability binding screen, Cl− channel (GABA-gated) (antagonist radioligand); conditions: 2.5E−05M
Protocol: as §1

[22] = tested on: ER (non-selective) (h); assay: Abuse liability binding screen, ER (non-selective) (h) (agonist radioligand); parameters: species or system human; conditions: 2.5E−05M
Protocol: as §1

[23] = against a μ-opioid receptor agonist ligand

Oc1ccc2c3c1O[C@H]1[C@@H](O)CC[C@@]4(O)[C@@H](C2)N(CC2CCC2)CC[C@]314 [Nalbuphine, nalbuphine]
% Inhibition of Control Specific Binding 1st ([1]; 1.0E−05M): −11.3% | % Inhibition of Control Specific Binding 2nd ([1]; 1.0E−05M): −7.4% | % Inhibition of Control Specific Binding Mean ([1]; 1.0E−05M): −9.4%

O=C(O)CC(CO)CN1CC[C@]23c4c5ccc(O)c4O[C@H]2[C@@H](O)CC[C@@]3(O)[C@H]1C5 (some centres unmarked) [Compound 1]
% Inhibition of Control Specific Binding Mean ([2]; 2.5E−05M): 92.0% | nH ([2]; IC50 determination): 0.6 | IC50 [2, 23]: 3.2 µM | Ki [2, 23]: 1.3 µM | EC50 ([3]; EC50 (nM), opioid-agonist assay, HEK-μ): 78000 nM and ~78000 nM | EC50 ([3]; EC50, μ-opioid receptor partial agonist/antagonist): ~173000 nM | μ-agonist EC50 relative to Cmax in HD patients ([3]; EC50 exceeding Cmax): ~4 fold | Max Inh (%) ([3]; opioid-agonist assay, HEK-μ): 61% | IC50 [4]: 3.2 µM | Ki [4]: 1.3 µM | NAL Selectivity relative to Comp1 / M5 (Compound 1 or M5 Ki/NAL Ki) ([4]; μ-receptor): 929 | inhibition at 25 µM [5]: 11% | % Inhibition of Control Specific Binding 1st [6]: 6.3% | % Inhibition of Control Specific Binding 2nd [6]: 34.1% | % Inhibition of Control Specific Binding Mean [6]: 20.2% | % Inhibition of Control Specific Binding 1st [7]: −4.4% | % Inhibition of Control Specific Binding 2nd [7]: 21.0% | % Inhibition of Control Specific Binding Mean [7]: 8.3% | % Inhibition of Control Specific Binding 1st [8]: 0.9% | % Inhibition of Control Specific Binding 2nd [8]: −3.7% | % Inhibition of Control Specific Binding Mean [8]: −1.4% | Max Inh (%) [9]: −10% @ | IC50 ([9]; Nor-BNI, read-out: EC50 (nM) column (IC50 per footnote)): > 30000 nM | IC50 ([10]; CHO-κ, [3H]U 69593): 74 µM | Ki ([10]; CHO-κ, [3H]U 69593): 49 µM | NAL Selectivity relative to Comp1 / M5 (Compound 1 or M5 Ki/NAL Ki) ([10]; k-receptor): 13,611 | % Inhibition of Control Specific Binding 1st [11]: −12.2% | % Inhibition of Control Specific Binding 2nd [11]: −1.4% | % Inhibition of Control Specific Binding Mean [11]: −6.8% | % Inhibition of Control Specific Binding 1st [12]: −12.5% | % Inhibition of Control Specific Binding 2nd [12]: −9.8% | % Inhibition of Control Specific Binding Mean [12]: −11.1% | IC50 [13]: > 30 µM | inhibition at 30 µM ([13]; HEK293, read-out: Max Inh (%)): -1% | % Inhibition of Control Specific Binding 1st [14]: −13.5% | % Inhibition of Control Specific Binding 2nd [14]: −9.7% | % Inhibition of Control Specific Binding Mean [14]: −11.6% | activity at the delta receptor [15]: no activity | % Inhibition of Control Specific Binding 1st [16]: 7.4% | % Inhibition of Control Specific Binding 2nd [16]: −6.2% | % Inhibition of Control Specific Binding Mean [16]: 0.6% | Cmax [17]: ~16 µM | % Inhibition of Control Specific Binding 1st ([1]; 2.5E−05M): −9.6% | % Inhibition of Control Specific Binding 2nd ([1]; 2.5E−05M): −11.9% | % Inhibition of Control Specific Binding Mean ([1]; 2.5E−05M): −10.7% | EC50 [18]: > 100 µM | Max Inh (%) [18]: 14% | IC50 [19]: 74 µM | Ki [19]: 49 µM | nH ([19]; IC50 determination): 0.7 | % Inhibition of Control Specific Binding 1st [20]: 3.4% | % Inhibition of Control Specific Binding 2nd [20]: 3.0% | % Inhibition of Control Specific Binding Mean [20]: 3.2% | % Inhibition of Control Specific Binding 1st [21]: 1.7% | % Inhibition of Control Specific Binding 2nd [21]: 1.0% | % Inhibition of Control Specific Binding Mean [21]: 1.3% | % Inhibition of Control Specific Binding 1st [22]: −8.0% | % Inhibition of Control Specific Binding 2nd [22]: 4.3% | % Inhibition of Control Specific Binding Mean [22]: −1.9%
